# Assay results published in the supplement of paper PMC10307832.
# Tests used:
# Test in all cases: relative viability (nuclei count vs DMSO), 5 days (fraction); higher = more cells survive
# Palbociclib + Trametinib = compound: CC(=O)c1c(C)c2cnc(Nc3ccc(N4CCNCC4)cn3)nc2n(C2CCCC2)c1=O [Palbociclib] + CC(=O)Nc1cccc(-n2c(=O)n(C3CC3)c(=O)c3c(Nc4ccc(I)cc4F)n(C)c(=O)c(C)c32)c1 [Trametinib] (partner 0.02 µM)
# Outline: (§1)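 Relative viability equals treated-well nuclei counts divided by vehicle-well nuclei counts. Counts came from 4× images of lung cancer cell lines grown in 1536-well plates for 5 days after pin-tool dosing on the day after seeding. Dosing used one drug alone or a fixed anchor-drug dose plus five library-drug doses (not always all listed) in √10 steps, and values are medians of duplicate plates.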
# Palbociclib + Luminespib = compound: CC(=O)c1c(C)c2cnc(Nc3ccc(N4CCNCC4)cn3)nc2n(C2CCCC2)c1=O [Palbociclib] + CCNC(=O)c1noc(-c2cc(C(C)C)c(O)cc2O)c1-c1ccc(CN2CCOCC2)cc1 [Luminespib] (partner 0.01 µM)
# Outline: as §1
# Palbociclib + OSI-027 = compound: CC(=O)c1c(C)c2cnc(Nc3ccc(N4CCNCC4)cn3)nc2n(C2CCCC2)c1=O [Palbociclib] + COc1cccc2cc(-c3nc([C@H]4CC[C@H](C(=O)O)CC4)n4ncnc(N)c34)[nH]c12 [OSI-027] (partner 0.5 µM)
# Outline: as §1
# Palbociclib + AZD7762 = compound: CC(=O)c1c(C)c2cnc(Nc3ccc(N4CCNCC4)cn3)nc2n(C2CCCC2)c1=O [Palbociclib] + NC(=O)Nc1cc(-c2cccc(F)c2)sc1C(=O)N[C@H]1CCCNC1 [AZD7762] (partner 0.2 µM)
# Outline: as §1
Cell Line,relative viability (Palbociclib + Trametinib; first compound 0.01 µM),relative viability (Palbociclib + Trametinib; first compound 0.03162 µM),relative viability (Palbociclib + Trametinib; first compound 0.1 µM),relative viability (Palbociclib + Trametinib; first compound 0.3162 µM),relative viability (Palbociclib + Trametinib; first compound 1 µM),relative viability (Palbociclib + Luminespib; first compound 0.01 µM),relative viability (Palbociclib + Luminespib; first compound 0.03162 µM),relative viability (Palbociclib + Luminespib; first compound 0.1 µM),relative viability (Palbociclib + Luminespib; first compound 0.3162 µM),relative viability (Palbociclib + Luminespib; first compound 1 µM),relative viability (Palbociclib + OSI-027; first compound 0.01 µM),relative viability (Palbociclib + OSI-027; first compound 0.1 µM),relative viability (Palbociclib + OSI-027; first compound 0.3162 µM),relative viability (Palbociclib + OSI-027; first compound 1 µM),relative viability (Palbociclib + AZD7762; first compound 0.01 µM),relative viability (Palbociclib + AZD7762; first compound 0.03162 µM),relative viability (Palbociclib + AZD7762; first compound 0.1 µM),relative viability (Palbociclib + AZD7762; first compound 0.3162 µM),relative viability (Palbociclib + AZD7762; first compound 1 µM),relative viability (Palbociclib + OSI-027; first compound 0.03162 µM)
NCI-H23,0.447,0.295,0.42,0.39,0.289,0.216,0.214,0.219,0.196,0.236,0.576,0.502,0.463,0.408,0.304,0.324,0.268,0.248,0.217,
NCI-H322M,0.499,0.474,0.491,0.482,0.51,0.699,0.729,0.647,0.657,0.475,0.553,0.385,0.435,0.446,0.59,0.572,0.524,0.507,0.451,0.499
NCI-H358,0.124,0.133,0.106,0.12,0.106,0.325,,0.176,0.308,0.134,0.807,0.501,0.455,0.138,0.535,0.417,0.347,0.29,0.213,0.62
NCI-H441,0.483,0.409,0.23,0.228,0.155,0.317,0.371,0.38,0.26,0.229,0.56,0.407,0.405,0.213,1.04,0.844,0.896,0.743,0.598,0.394
